In this assay the test system is 1st-stage larvae of Haemonchus contortus. Nature of the assay: Test for effect on motion of larvae of Haemonchus nematode. As to conditions: 20 larvae per well, 27° C./95% RH for 4 days, corrected against DMSO negative control, duplicate. The protocol:
Test for Effect on Motion of Larvae of Haemonchus Nematode (Haemonchus contortus) The compound of the present invention was prepared as solutions in 100% DMSO at the final concentrations of 50 ppm, 5 ppm, 0.5 ppm, 0.05 ppm and 0.005 ppm. DMSO stands for dimethyl sulfoxide. A larval suspension containing 1st-stage larvae of Haemonchus contortus harvested by the Baermann technique (for example, see K. Nakazono et al., “Inclination of Baermann funnel wall and efficiency of nematode extraction” Proc. Assoc. Pl. Prot. Kyushu 33: 126-130 (1987)) was placed at a density of 20 larvae per well in a test plate, and 0.5 μL/well of the test solution containing the compound of the present invention diluted to a predetermined concentration was added to the test plate. The plate was kept under the conditions of 27° C./95% RH for 4 days. In the test, ivermectin was used for the positive control and DMSO was used for the negative control. The motor ability of the larvae was examined with an automatic analyzer equipped with an LCD camera. The inhibitory effect on the motion of the larvae in each treatment plot was corrected based on the inhibitory effect in the plot treated with DMSO only for the negative control. The EC50 value was calculated from the data on the corrected inhibitory effect on the motion of the larvae, and graded according to the criteria shown below. The test was conducted in duplicate per plot.
For the compound `CC(CNC(=O)c1ccccc1C(F)(F)F)c1ccc(Oc2ncc(C(F)(F)F)cc2Cl)cc1Cl` (racemic) [Compound 1-41], the “EC50 value of corrected inhibitory effect on the motion of the larvae, graded” value is reported as “C or higher”.

Consider `CC(CNC(=O)c1ccccc1C(F)(F)F)c1ccc(Oc2ccc(C(F)(F)F)cn2)cc1Cl` (racemic) [Compound 1-42], for which the “EC50 value of corrected inhibitory effect on the motion of the larvae, graded” value is recorded as “C or higher”.

`CC(CNC(=O)c1ccccc1C(F)(F)F)c1ccc(Oc2ncc(Cl)cc2Cl)cc1Cl` (racemic) [Compound 1-43]: the “EC50 value of corrected inhibitory effect on the motion of the larvae, graded” value is recorded as “C or higher”.

As for `CC(CNC(=O)c1ccccc1C(F)(F)F)c1ccc(-c2ccc(C(F)(F)F)cc2)cc1Cl` (racemic) [Compound 1-57], the “EC50 value of corrected inhibitory effect on the motion of the larvae, graded” value is “C or higher”.

Take `CC(CNC(=O)c1ccccc1C(F)(F)F)c1ccc(-c2ccccc2)cc1Cl` (racemic) [Compound 1-58]: the “EC50 value of corrected inhibitory effect on the motion of the larvae, graded” value is listed as “C or higher”.

As to `CC(CNC(=O)c1ccccc1C(F)(F)F)c1ccc(-c2ccncc2)cc1Cl` (racemic) [Compound 1-59], the “EC50 value of corrected inhibitory effect on the motion of the larvae, graded” value is reported as “C or higher”.

On to `COC(CNC(=O)c1ccccc1C(F)(F)F)c1ccc(Oc2ncc(C(F)(F)F)cc2Cl)cc1Cl` (racemic) [Compound 1-60], for which the “EC50 value of corrected inhibitory effect on the motion of the larvae, graded” value was “C or higher”.

Consider `COC(CNC(=O)c1ccccc1C(F)(F)F)c1ccc(Oc2ccc(C(F)(F)F)cn2)cc1Cl` (racemic) [Compound 1-61], for which the “EC50 value of corrected inhibitory effect on the motion of the larvae, graded” value was “C or higher”.

As for `COC(CNC(=O)c1ccccc1C(F)(F)F)c1ccc(Oc2ncc(Cl)cc2Cl)cc1Cl` (racemic) [Compound 1-62], the “EC50 value of corrected inhibitory effect on the motion of the larvae, graded” value is listed as “C or higher”.

With `O=C(NCCc1ccc(Oc2ncc(Cl)cc2Cl)cc1Cl)c1ccccc1C(F)(F)F` [Compound 1-1], the “EC50 value of corrected inhibitory effect on the motion of the larvae, graded” value was “C or higher”.

For `O=C(NCCc1ccc(Oc2ncc(Br)cc2Cl)cc1Cl)c1ccccc1C(F)(F)F` [Compound 1-2], the “EC50 value of corrected inhibitory effect on the motion of the larvae, graded” value is given as “C or higher”.

As for `O=C(NCCc1ccc(Oc2nccnc2C(F)(F)F)cc1Cl)c1ccccc1C(F)(F)F` [Compound 1-3], the “EC50 value of corrected inhibitory effect on the motion of the larvae, graded” value was “C or higher”.

For `O=C(NCCc1ccc(Oc2nccnc2Cl)cc1Cl)c1ccccc1C(F)(F)F` [Compound 1-4], the “EC50 value of corrected inhibitory effect on the motion of the larvae, graded” value is given as “C or higher”.

Take `O=C(NCCc1ccc(Oc2cnccn2)cc1Cl)c1ccccc1C(F)(F)F` [Compound 1-5]: the “EC50 value of corrected inhibitory effect on the motion of the larvae, graded” value is given as “C or higher”.

As to `COc1cc(OC)nc(Oc2ccc(CCNC(=O)c3ccccc3C(F)(F)F)c(Cl)c2)n1` [Compound 1-6], the “EC50 value of corrected inhibitory effect on the motion of the larvae, graded” value is on record as “C or higher”.

With `Cc1cc(C)nc(Oc2ccc(CCNC(=O)c3ccccc3C(F)(F)F)c(Cl)c2)n1` [Compound 1-7], the “EC50 value of corrected inhibitory effect on the motion of the larvae, graded” value was “C or higher”.

Take `O=C(NCCc1ccc(Oc2ccnc(Cl)n2)cc1Cl)c1ccccc1C(F)(F)F` [Compound 1-8]: the “EC50 value of corrected inhibitory effect on the motion of the larvae, graded” value is listed as “C or higher”.

In the case of `O=C(NCCc1ccc(Oc2cc(Cl)nc(Cl)n2)cc1Cl)c1ccccc1C(F)(F)F` [Compound 1-9], the “EC50 value of corrected inhibitory effect on the motion of the larvae, graded” value is given as “C or higher”.

Consider `Cc1cc(Oc2ccc(CCNC(=O)c3ccccc3C(F)(F)F)c(Cl)c2)nc(Cl)n1` [Compound 1-10], for which the “EC50 value of corrected inhibitory effect on the motion of the larvae, graded” value is listed as “C or higher”.

In the case of `Cc1cnc(Cl)nc1Oc1ccc(CCNC(=O)c2ccccc2C(F)(F)F)c(Cl)c1` [Compound 1-11], the “EC50 value of corrected inhibitory effect on the motion of the larvae, graded” value is listed as “C or higher”.

For `O=C(NCCc1ccc(Oc2ccc3ccccc3n2)cc1Cl)c1ccccc1C(F)(F)F` [Compound 1-13], the “EC50 value of corrected inhibitory effect on the motion of the larvae, graded” value was “C or higher”.

For `O=C(NCCc1ccc(Oc2cnc3ccccc3n2)cc1Cl)c1ccccc1C(F)(F)F` [Compound 1-14], the “EC50 value of corrected inhibitory effect on the motion of the larvae, graded” value is reported as “C or higher”.

Take `O=C(NCCc1ccc(Oc2nc3ccccc3s2)cc1Cl)c1ccccc1C(F)(F)F` [Compound 1-15]: the “EC50 value of corrected inhibitory effect on the motion of the larvae, graded” value is listed as “C or higher”.

On to `O=C(NCCc1ccc(Oc2nc3ccc(Cl)cc3s2)cc1Cl)c1ccccc1C(F)(F)F` [Compound 1-16], for which the “EC50 value of corrected inhibitory effect on the motion of the larvae, graded” value is “C or higher”.

As to `O=C(NCCc1ccc(Oc2nc3ccccc3o2)cc1Cl)c1ccccc1C(F)(F)F` [Compound 1-17], the “EC50 value of corrected inhibitory effect on the motion of the larvae, graded” value is recorded as “C or higher”.

Take `O=C(NCCc1ccc(Oc2ccccc2)cc1Cl)c1ccccc1C(F)(F)F` [Compound 1-18]: the “EC50 value of corrected inhibitory effect on the motion of the larvae, graded” value is listed as “C or higher”.

In the case of `O=C(NCCc1ccc(Oc2ccc(C(F)(F)F)cc2)cc1Cl)c1ccccc1C(F)(F)F` [Compound 1-19], the “EC50 value of corrected inhibitory effect on the motion of the larvae, graded” value is listed as “C or higher”.

For `O=C(NCCc1ccc(Oc2ncc(C(F)(F)F)cc2Cl)cc1Cl)c1ccccc1I` [Compound 1-20], the “EC50 value of corrected inhibitory effect on the motion of the larvae, graded” value is “C or higher”.

On to `O=C(NCCc1ccc(Oc2ccc(C(F)(F)F)cn2)cc1Cl)c1ccccc1I` [Compound 1-21], for which the “EC50 value of corrected inhibitory effect on the motion of the larvae, graded” value is given as “C or higher”.

As to `O=C(NCCc1ccc(Oc2ncc(Cl)cc2Cl)cc1Cl)c1ccccc1I` [Compound 1-22], the “EC50 value of corrected inhibitory effect on the motion of the larvae, graded” value was “C or higher”.

Take `O=C(NCCc1ccc(Oc2ncc(Br)cc2Cl)cc1Cl)c1ccccc1I` [Compound 1-23]: the “EC50 value of corrected inhibitory effect on the motion of the larvae, graded” value is recorded as “C or higher”.

As to `O=C(NCCc1ccc(Oc2nccnc2C(F)(F)F)cc1Cl)c1ccccc1I` [Compound 1-24], the “EC50 value of corrected inhibitory effect on the motion of the larvae, graded” value is reported as “C or higher”.

Consider `O=C(NCCc1ccc(Oc2nccnc2Cl)cc1Cl)c1ccccc1I` [Compound 1-25], for which the “EC50 value of corrected inhibitory effect on the motion of the larvae, graded” value is “C or higher”.

`O=C(NCCc1ccc(Oc2cnccn2)cc1Cl)c1ccccc1I` [Compound 1-26]: the “EC50 value of corrected inhibitory effect on the motion of the larvae, graded” value is recorded as “C or higher”.

With `COc1cc(OC)nc(Oc2ccc(CCNC(=O)c3ccccc3I)c(Cl)c2)n1` [Compound 1-27], the “EC50 value of corrected inhibitory effect on the motion of the larvae, graded” value is recorded as “C or higher”.

In the case of `Cc1cc(C)nc(Oc2ccc(CCNC(=O)c3ccccc3I)c(Cl)c2)n1` [Compound 1-28], the “EC50 value of corrected inhibitory effect on the motion of the larvae, graded” value is on record as “C or higher”.

In the case of `O=C(NCCc1ccc(Oc2ccnc(Cl)n2)cc1Cl)c1ccccc1I` [Compound 1-29], the “EC50 value of corrected inhibitory effect on the motion of the larvae, graded” value was “C or higher”.

`O=C(NCCc1ccc(Oc2cc(Cl)nc(Cl)n2)cc1Cl)c1ccccc1I` [Compound 1-30]: the “EC50 value of corrected inhibitory effect on the motion of the larvae, graded” value was “C or higher”.

Turning to `Cc1cc(Oc2ccc(CCNC(=O)c3ccccc3I)c(Cl)c2)nc(Cl)n1` [Compound 1-31], the “EC50 value of corrected inhibitory effect on the motion of the larvae, graded” value was “C or higher”.

Consider `Cc1cnc(Cl)nc1Oc1ccc(CCNC(=O)c2ccccc2I)c(Cl)c1` [Compound 1-32], for which the “EC50 value of corrected inhibitory effect on the motion of the larvae, graded” value is “C or higher”.

Regarding `O=C(NCCc1ccc(Oc2ccc3ccccc3n2)cc1Cl)c1ccccc1I` [Compound 1-34], the “EC50 value of corrected inhibitory effect on the motion of the larvae, graded” value is on record as “C or higher”.

As for `O=C(NCCc1ccc(Oc2cnc3ccccc3n2)cc1Cl)c1ccccc1I` [Compound 1-35], the “EC50 value of corrected inhibitory effect on the motion of the larvae, graded” value was “C or higher”.

As to `O=C(NCCc1ccc(Oc2nc3ccccc3s2)cc1Cl)c1ccccc1I` [Compound 1-36], the “EC50 value of corrected inhibitory effect on the motion of the larvae, graded” value is on record as “C or higher”.

Take `O=C(NCCc1ccc(Oc2nc3ccc(Cl)cc3s2)cc1Cl)c1ccccc1I` [Compound 1-37]: the “EC50 value of corrected inhibitory effect on the motion of the larvae, graded” value is “C or higher”.

With `O=C(NCCc1ccc(Oc2nc3ccccc3o2)cc1Cl)c1ccccc1I` [Compound 1-38], the “EC50 value of corrected inhibitory effect on the motion of the larvae, graded” value is “C or higher”.

As to `O=C(NCCc1ccc(Oc2ccccc2)cc1Cl)c1ccccc1I` [Compound 1-39], the “EC50 value of corrected inhibitory effect on the motion of the larvae, graded” value is given as “C or higher”.

For `O=C(NCCc1ccc(Oc2ccc(C(F)(F)F)cc2)cc1Cl)c1ccccc1I` [Compound 1-40], the “EC50 value of corrected inhibitory effect on the motion of the larvae, graded” value is listed as “C or higher”.

As to `CC(C)(CNC(=O)c1ccccc1C(F)(F)F)c1ccc(Oc2ncc(C(F)(F)F)cc2Cl)cc1Cl` [Compound 1-44], the “EC50 value of corrected inhibitory effect on the motion of the larvae, graded” value is reported as “C or higher”.

For `CC(C)(CNC(=O)c1ccccc1C(F)(F)F)c1ccc(Oc2ccc(C(F)(F)F)cn2)cc1Cl` [Compound 1-45], the “EC50 value of corrected inhibitory effect on the motion of the larvae, graded” value is given as “C or higher”.

On to `CC(C)(CNC(=O)c1ccccc1C(F)(F)F)c1ccc(Oc2ncc(Cl)cc2Cl)cc1Cl` [Compound 1-46], for which the “EC50 value of corrected inhibitory effect on the motion of the larvae, graded” value was “C or higher”.

On to `O=C(NCC1(c2ccc(Oc3ncc(C(F)(F)F)cc3Cl)cc2Cl)CC1)c1ccccc1C(F)(F)F` [Compound 1-47], for which the “EC50 value of corrected inhibitory effect on the motion of the larvae, graded” value is “C or higher”.

In the case of `O=C(NCC1(c2ccc(Oc3ccc(C(F)(F)F)cn3)cc2Cl)CC1)c1ccccc1C(F)(F)F` [Compound 1-48], the “EC50 value of corrected inhibitory effect on the motion of the larvae, graded” value is recorded as “C or higher”.
